Test results: ChEMBL document CHEMBL1201862, “PubChem BioAssay data set” (2004)
“And” between values parts separate entries of the source, which are not always exact repeats. Identical values can stand only once.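 In this assay, cells in 96-well plates receive the compound at five concentrations for 48 hours. Endpoints are linearly interpolated between the surrounding concentrations. GI50 = concentration required for 50% inhibition of growth.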 The source made the active and inactive calls. Cut-off read from the data, not from the text of the source: active = GI50 up to about 1.1 µM and inactive = higher.

Assays:
Assay in all cases: growth of human tumour cells (NCI), 48 h
OVCAR-4 = system: OVCAR-4
A549 = system: A549
MDA-MB-231 = system: MDA-MB-231
SK-MEL-5 = system: SK-MEL-5
HCT-116 = system: HCT-116
SR = system: SR
PC-3 = system: PC-3
CAKI-1 = system: CAKI-1
EKVX = system: EKVX
UO-31 = system: UO-31
MOLT-4 = system: MOLT-4
NCI/ADR-RES = system: NCI/ADR-RES
NCI-H226 = system: NCI-H226
SK-MEL-28 = system: SK-MEL-28
MDA-MB-435 = system: MDA-MB-435
K562 = system: K562
TK-10 = system: TK-10
CCRF-CEM = system: CCRF-CEM
DU-145 = system: DU-145
COLO 205 = system: COLO 205
U-251 = system: U-251
LOX IMVI = system: LOX IMVI
IGROV-1 = system: IGROV-1
SF-295 = system: SF-295
A498 = system: A498
OVCAR-3 = system: OVCAR-3
786-0 = system: 786-0
RXF 393 = system: RXF 393
NCI-H460 = system: NCI-H460
UACC-62 = system: UACC-62
HOP-62 = system: HOP-62
HCC 2998 = system: HCC 2998
OVCAR-8 = system: OVCAR-8
SF-268 = system: SF-268
HL-60 = system: HL-60
HOP-92 = system: HOP-92
SNB-75 = system: SNB-75
MCF7 = system: MCF7
SNB-19 = system: SNB-19
SN12C = system: SN12C
SF-539 = system: SF-539
NCI-H23 = system: NCI-H23
UACC-257 = system: UACC-257
OVCAR-5 = system: OVCAR-5
M14 = system: M14
KM12 = system: KM12
SW-620 = system: SW-620
ACHN = system: ACHN
HCT-15 = system: HCT-15
HT-29 = system: HT-29
T47D = system: T47D
Malme-3M = system: Malme-3M
SK-OV-3 = system: SK-OV-3
MDA-N = system: MDA-N
NCI-H522 = system: NCI-H522
BT-549 = system: BT-549
SK-MEL-2 = system: SK-MEL-2
RPMI-8226 = system: RPMI-8226

For `CCOC(=O)c1c(-c2ccc(OC)cc2)c(C#N)c(=S)n(C2OC(COC(C)=O)C(OC(C)=O)C(OC(C)=O)C2OC(C)=O)c1C` (stereo not given), the GI50 (OVCAR-4) was 20.9 µM (inactive), the GI50 (A549) was > 100 µM (inactive) and the GI50 (MDA-MB-231) was > 100 µM (inactive). For the same compound, the GI50 (SK-MEL-5) was > 100 µM (inactive), the GI50 (HCT-116) was > 100 µM (inactive) and the GI50 (SR) was > 100 µM (inactive). The GI50 (PC-3) was 30.8 µM (inactive), the GI50 (CAKI-1) was > 100 µM (inactive) and the GI50 (EKVX) was 78.2 µM (inactive). The GI50 (UO-31) was 1.46 µM (inactive), the GI50 (MOLT-4) was 61.1 µM (inactive) and the GI50 (NCI/ADR-RES) was > 100 µM (inactive). For the same compound, the GI50 (NCI-H226) was > 100 µM (inactive), the GI50 (SK-MEL-28) was > 100 µM (inactive) and the GI50 (MDA-MB-435) was > 100 µM (inactive). The GI50 (K562) was 38.4 µM (inactive), the GI50 (TK-10) was > 100 µM (inactive) and the GI50 (CCRF-CEM) was 61.9 µM (inactive). For the same compound, the GI50 (DU-145) was > 100 µM (inactive), the GI50 (COLO 205) was > 100 µM (inactive) and the GI50 (U-251) was > 100 µM (inactive). For the same compound, the GI50 (LOX IMVI) was > 100 µM (inactive), the GI50 (IGROV-1) was > 100 µM (inactive) and the GI50 (SF-295) was > 100 µM (inactive). The GI50 (A498) was > 100 µM (inactive), the GI50 (OVCAR-3) was 31.5 µM (inactive) and the GI50 (786-0) was > 100 µM (inactive). The GI50 (RXF 393) was > 100 µM (inactive), the GI50 (NCI-H460) was > 100 µM (inactive) and the GI50 (UACC-62) was 44.5 µM (inactive). The GI50 (HOP-62) was > 100 µM (inactive), the GI50 (HCC 2998) was > 100 µM (inactive) and the GI50 (OVCAR-8) was > 100 µM (inactive). For the same compound, the GI50 (SF-268) was > 100 µM (inactive), the GI50 (HL-60) was 75.7 µM (inactive) and the GI50 (HOP-92) was 4.32 µM (inactive). For the same compound, the GI50 (SNB-75) was 12.7 µM (inactive), the GI50 (MCF7) was > 100 µM (inactive) and the GI50 (SNB-19) was > 100 µM (inactive). The GI50 (SN12C) was > 100 µM (inactive), the GI50 (SF-539) was > 100 µM (inactive) and the GI50 (NCI-H23) was > 100 µM (inactive). For the same compound, the GI50 (UACC-257) was > 100 µM (inactive), the GI50 (OVCAR-5) was > 100 µM (inactive) and the GI50 (M14) was > 100 µM (inactive). For the same compound, the GI50 (KM12) was > 100 µM (inactive), the GI50 (SW-620) was > 100 µM (inactive) and the GI50 (ACHN) was 58.2 µM (inactive). The GI50 (HCT-15) was over 100 µM, the GI50 (HT-29) was > 100 µM (inactive) and the GI50 (T47D) was 47.6 µM (inactive). For the same compound, the GI50 (Malme-3M) was > 100 µM (inactive), the GI50 (SK-OV-3) was > 100 µM (inactive) and the GI50 (MDA-N) was > 100 µM (inactive). For the same compound, the GI50 (NCI-H522) was 70.8 µM (inactive).

For `Cc1cc(NCCCCCCNc2cc(C)nc3ccc(N)cc23)c2cc(N)ccc2n1`, the GI50 (U-251) was 62.8 µM (inactive) and the GI50 (SNB-19) was 58.5 µM (inactive).

With `COC(=O)CCc1cc(OC)c2c(c1)C(C(=O)OC)C(c1ccc(OC)c(OC)c1)O2` (stereo not given) the GI50 (OVCAR-4) was > 100 µM (inactive) and 58.5 µM (inactive), the GI50 (BT-549) was 22.6 µM (inactive) and 42.4 µM (inactive) and the GI50 (EKVX) was > 52.5 µM (inactive). For the same compound, the GI50 (TK-10) was > 100 µM (inactive) and > 91.4 µM (inactive), the GI50 (RXF 393) was 34.9 µM (inactive) and the GI50 (HCC 2998) was 60.5 µM (inactive). For the same compound, the GI50 (HOP-92) was > 95.7 µM (inactive), the GI50 (SNB-75) was 10.6 µM (inactive) and the GI50 (SN12C) was 62.4 µM (inactive). For the same compound, the GI50 (NCI-H23) was > 100 µM (inactive) and > 71 µM (inactive), the GI50 (UACC-257) was > 100 µM (inactive) and the GI50 (OVCAR-5) was > 79.1 µM (inactive). The GI50 (ACHN) was 59.2 µM (inactive), the GI50 (HT-29) was 5.32 µM (inactive) and the GI50 (T47D) was 24.8 µM (inactive).

`C=C1c2nc3ccccc3n2C=C(c2ccccc2)N1c1ccccc1` was tested, and the GI50 (OVCAR-4) was 16.4 µM (inactive), the GI50 (A549) was 30.3 µM (inactive) and the GI50 (BT-549) was 24.5 µM (inactive). For the same compound, the GI50 (MDA-MB-231) was > 100 µM (inactive), the GI50 (SK-MEL-5) was 17.1 µM (inactive) and the GI50 (HCT-116) was 13.5 µM (inactive). For the same compound, the GI50 (SR) was 21.7 µM (inactive), the GI50 (SK-MEL-2) was 73.5 µM (inactive) and the GI50 (PC-3) was 34.3 µM (inactive). For the same compound, the GI50 (CAKI-1) was 81.7 µM (inactive), the GI50 (EKVX) was > 100 µM (inactive) and the GI50 (UO-31) was 25.7 µM (inactive). For the same compound, the GI50 (MOLT-4) was 21.4 µM (inactive), the GI50 (NCI/ADR-RES) was 34 µM (inactive) and the GI50 (NCI-H226) was 57.4 µM (inactive). The GI50 (RPMI-8226) was 17.3 µM (inactive), the GI50 (MDA-MB-435) was 40.5 µM (inactive) and the GI50 (K562) was 34.5 µM (inactive). For the same compound, the GI50 (TK-10) was 49 µM (inactive), the GI50 (CCRF-CEM) was 53.3 µM (inactive) and the GI50 (DU-145) was > 100 µM (inactive). The GI50 (COLO 205) was 52.5 µM (inactive), the GI50 (U-251) was 58.6 µM (inactive) and the GI50 (LOX IMVI) was 42.2 µM (inactive). The GI50 (IGROV-1) was > 100 µM (inactive), the GI50 (SF-295) was 32.1 µM (inactive) and the GI50 (A498) was 65.3 µM (inactive). For the same compound, the GI50 (OVCAR-3) was > 100 µM (inactive), the GI50 (786-0) was > 100 µM (inactive) and the GI50 (RXF 393) was 22.4 µM (inactive). The GI50 (NCI-H460) was 27.5 µM (inactive), the GI50 (UACC-62) was 43.1 µM (inactive) and the GI50 (HCC 2998) was 12.5 µM (inactive). The GI50 (OVCAR-8) was 37.8 µM (inactive), the GI50 (HL-60) was 58.7 µM (inactive) and the GI50 (HOP-92) was 50.4 µM (inactive). For the same compound, the GI50 (SNB-75) was > 100 µM (inactive), the GI50 (MCF7) was 14.6 µM (inactive) and the GI50 (SNB-19) was 40.4 µM (inactive). For the same compound, the GI50 (SN12C) was 92.5 µM (inactive), the GI50 (SF-539) was 43.6 µM (inactive) and the GI50 (NCI-H23) was 33.7 µM (inactive). For the same compound, the GI50 (UACC-257) was 74.1 µM (inactive), the GI50 (OVCAR-5) was > 100 µM (inactive) and the GI50 (M14) was 67.9 µM (inactive). For the same compound, the GI50 (KM12) was 24.8 µM (inactive), the GI50 (SW-620) was 40.3 µM (inactive) and the GI50 (ACHN) was 49.4 µM (inactive). For the same compound, the GI50 (HCT-15) was 13.6 µM, the GI50 (Malme-3M) was > 100 µM (inactive) and the GI50 (SK-OV-3) was > 100 µM (inactive). The GI50 (MDA-N) was 39.8 µM (inactive) and the GI50 (NCI-H522) was 15.8 µM (inactive).
